Data as given in PubChem BioAssay (NCI).
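1) Cells in 96-well plates. 2) Compound, 48 h, 5 concentrations. 3) Linear interpolation between surrounding doses. 4) Unreached endpoint = highest concentration. Definition used: TGI = concentration required for complete inhibition of growth.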

Experiments:
Assay in all cases: growth of human tumour cells (NCI), 48 h
LOX IMVI melanoma = tested on: LOX IMVI melanoma
KM12 colon = tested on: KM12 colon
BT-549 breast = tested on: BT-549 breast
HCT-15 colon = tested on: HCT-15 colon
COLO 205 colon = tested on: COLO 205 colon
A498 renal = tested on: A498 renal
HOP-92 NSCLC = tested on: HOP-92 NSCLC
SNB-75 CNS = tested on: SNB-75 CNS
NCI-H226 lung = tested on: NCI-H226 lung
PC-3 prostate = tested on: PC-3 prostate
OVCAR-4 ovarian = tested on: OVCAR-4 ovarian
HT29 colon = tested on: HT29 colon

Compound | TGI (LOX IMVI melanoma) [µM] | TGI (KM12 colon) [µM] | TGI (BT-549 breast) [µM] | TGI (HCT-15 colon) [µM] | TGI (COLO 205 colon) [µM] | TGI (A498 renal) [µM] | TGI (HOP-92 NSCLC) [µM] | TGI (SNB-75 CNS) [µM] | TGI (NCI-H226 lung) [µM] | TGI (PC-3 prostate) [µM] | TGI (OVCAR-4 ovarian) [µM] | TGI (HT29 colon) [µM]
C/C(=N\NS(=O)(=O)c1ccc(C)cc1)c1ccccn1 | > 100 | > 100 | > 100 | > 100 | 93.5 | > 100 | > 100 | > 100 | > 100 | > 100 | > 100 | > 100
CC(C)NC(=O)OCc1c2c(n(C)c1COC(=O)NC(C)C)-c1cc(Cl)c(Cl)cc1CC2 | > 100 | 81.7 | > 100 | > 100 | 73.6 | 18.7 | 70.9 | 81.7 | > 100 | > 100 | > 100 | > 100
O=[N+]([O-])c1ccc(CSc2nncc3[nH]cnc23)cc1 | > 100 | > 100 | > 100 | > 100 | > 100 | > 100 | 67.1 | > 100 | > 100 | > 100 | > 100 | > 100
O=C1/C(=C/C=C/c2ccccc2)CCC1CNc1ccccc1 (configuration not stated) | 40 | 39.3 | > 69 | 50.1 | > 94.3 | > 100 | > 95.1 | > 100 | > 100 | > 100 | > 100 | 63.9
CCOC(=O)/C=C(\C(=O)OCC)n1cc(C)c(=O)n(Cc2cn(CCCCOC(C)=O)nn2)c1=O | 23.1 | 33.3 | 23.1 | > 44.2 | 8.91 | 33 | 4.7 | 30.3 | 17.1 | 36.2 | 53.1 | 21.1
O=C(CSc1nnc(-c2ccccn2)s1)N/N=C/c1ccccc1 | > 100 | > 100 | > 100 | > 100 | > 100 | > 100 | > 100 | 17 | > 100 | > 100 | > 100 | > 100
COc1ccc2c(c1)/C(=C\c1c(Cl)[nH]c3cc(C)c(OC)cc13)C(=O)N2 | 8.45 | 5.06 | 7.95 | 5.96 | 5.69 | 20.2 | 22.4 | 4.9 | > 100 | 8.27 | 16.2 | 7.27
CCOC(=O)c1ccc(N=C/C=C(\Nc2ccc(C(=O)OCC)cc2)C23CC4CC(CC(C4)C2)C3)cc1 | > 100 | > 100 | > 100 | > 100 | > 100 | > 100 | > 100 | > 100 | > 100 | > 100 | > 100 | > 100
N#Cc1c(-c2ccc(Cl)cc2)c2c(n(C3OC(CO)C(O)C(O)C3O)c1=S)CCCC2 (configuration not stated) | > 100 | > 100 | > 100 | > 100 | > 100 | > 100 | > 100 | > 100 | > 100 | > 100 | > 100 | > 100
C#CCn1c(=O)c(I)cn(/C(=C/C(=O)OCC)C(=O)OCC)c1=O | > 48.5 | 34.8 | 26.2 | 8.03 | 2.94 | 33.7 | 3.37 | 31.2 | 47.7 | 11 | 21.4 | 36.9
COC(=O)[C@@H]1C=C[C@H](OC2OC(COC(C)=O)C(OC(C)=O)C(OC(C)=O)C2OC(C)=O)n2c(=O)n(-c3ccccc3)c(=O)n21 (some centres not stated) | 3.09 | 19.6 | 6.26 | 3.85 | 3.38 | 20 | 3.59 | 13 | 40.4 | 7.67 | 3.22 | 3.64
COC(=O)C1=C(OC(=O)/C(=C/c2ccccc2)c2ccc(Cl)cc2Cl)C(C(=O)OC)[C@@]2(O)[C@@H](C(=O)OC)[C@H](C)C[C@@H]1[C@@H]2C(=O)OC (some centres not stated) | > 100 | > 100 | > 100 | > 100 | > 100 | > 100 | > 100 | > 100 | > 100 | > 100 | > 100 | > 100
Cc1ccc(C(=O)O)c(/C=C2\Cc3ccc(C)cc3C2=O)c1 | > 100 | > 100 | > 100 | > 100 | > 100 | > 100 | > 100 | > 100 | 85.2 | > 100 | > 100 | > 100
Cc1ccc(C2(O)CSC(=NC34CC5CC(CC(C5)C3)C4)N2C(P(=O)(O)O)P(=O)(O)O)cc1 (configuration not stated) | – | > 100 | > 100 | > 100 | > 100 | > 100 | > 100 | > 100 | > 100 | > 100 | > 100 | > 100
